Active and inactive are the calls of the source. How the calls were made is not given here.
Biological target: Influenza A virus M2 proton channel (A/TW/4845/1999 H1N1)
Experiment: NMR binding screen, influenza A virus M2 proton channel, Kd (AID 1549)
Details: M2 protein

Row | SMILES | Kd
1 | Cc1ccnc(NS(=O)(=O)c2ccccc2)n1 | > 4 mM (inactive)
2 | Nc1c(S(=O)(=O)c2ccccc2)csc1C(=O)O | > 4 mM (inactive)
3 | Nc1cc(-c2ccco2)[nH]n1 | > 4 mM (inactive)
4 | CC(=O)Nc1sccc1C(N)=O | > 4 mM (inactive)
5 | S=C(NCc1cccnc1)NC1CC1 | > 4 mM (inactive)
6 | Cc1cc(=O)c2c(O)cc(O)c(C)c2o1 | > 4 mM (inactive)
7 | CC(C)=CC(=O)Nc1ccc2c(c1)OCO2 | > 4 mM (inactive)
8 | C/C=C(\C)C(=O)O[C@@H]1c2c(ccc3ccc(=O)oc23)OC(C)(C)[C@@H]1OC(C)=O | > 4 mM (inactive)
9 | Cc1nc(-c2ccccc2)ncc1C(=O)O | > 4 mM (inactive)
10 | C=C[C@](C)(O)CCC=C(C)C | > 4 mM (inactive)
11 | Cc1cc(C)nc(N2CC(=O)N(C)C2=N)n1 | > 4 mM (inactive)
12 | Cc1ccc(CNc2ccc(O)cc2)cc1 | > 4 mM (inactive)
13 | COc1ccc2c(c1OC)C(=O)O[C@H]2[C@H]1c2cc3c(cc2CCN1C)OCO3 | > 4 mM (inactive)
14 | C=C[C@H]1CN2CC[C@H]1C[C@@H]2[C@@H](O)c1ccnc2ccc(OC)cc12 | > 4 mM (inactive)
15 | Cc1cc(NC(=O)c2ccc3c(c2)OCCO3)no1 | > 4 mM (inactive)
16 | S=C(Cc1cccnc1)N1CCOCC1 | > 4 mM (inactive)
17 | COc1ccc(CN2CCC(O)CC2)c(O)c1 | > 4 mM (inactive)
18 | NC(=O)c1ccccc1N1CCCCC1 | > 4 mM (inactive)
19 | Cc1ccc(C(=O)NCCO)c(Cl)c1 | > 4 mM (inactive)
20 | COc1cc(O)c2c(=O)cc(-c3ccc(OC)c(-c4c(O)cc(O)c5c(=O)cc(-c6ccc(O)cc6)oc45)c3)oc2c1 | > 4 mM (inactive)
21 | NC1=NC(=O)CC(C(=O)Nc2ccccc2)S1 (stereo unspecified) | > 4 mM (inactive)
22 | CCOc1ccc(C)cc1S(=O)(=O)n1ccnc1 | > 4 mM (inactive)

Row | SMILES | Kd
23 | CC(C1OC(C)(C)C(O)C1O)[C@@H]1CC[C@]2(C)C3=CCC4C(C)(C)C(=O)CC[C@]4(C)C3CC[C@@]12C (stereo partly specified) | > 4 mM (inactive)
24 | COc1ccc(-c2ccc(SCC(N)=O)nn2)cc1 | > 4 mM (inactive)
25 | Cn1c(=O)[nH]c2nc[nH]c2c1=O | > 4 mM (inactive)
26 | COc1ccc2nc(N)sc2c1 | > 4 mM (inactive)
27 | Cn1c(SCC(=O)NCCO)nc2ccccc2c1=O | > 4 mM (inactive)
28 | CNC(=O)Cn1c(=O)n(C)c2ccccc21 | > 4 mM (inactive)
29 | Cn1c(CN)nc2ccccc21 | > 4 mM (inactive)
30 | CN1C(=O)c2ccc(N3CCCC3)cc2C1=O | > 4 mM (inactive)
31 | O=C1NC(=S)N/C1=C\c1ccccc1F | > 4 mM (inactive)
32 | Cc1occc1C(=O)N1CCN(S(C)(=O)=O)CC1 | > 4 mM (inactive)
33 | O=S(=O)(O)c1nc2ccccc2[nH]1 | > 4 mM (inactive)
34 | CC1(C)N([O-])c2cc([N+](=O)[O-])ccc2[N+]1=O | > 4 mM (inactive)
35 | Cn1cnc2c(=S)[nH]c(=O)n(Cc3ccccc3)c21 | > 4 mM (inactive)
36 | COC(=O)c1cc(-c2c[nH]c3ccccc23)n[nH]1 | > 4 mM (inactive)
37 | Clc1ccc(-c2nnc3ccccn23)cc1 | > 4 mM (inactive)
38 | O=C(O)CSCc1ccc(Cl)cc1 | > 4 mM (inactive)
39 | Cc1cc(C(=O)NN2CCOCC2)c(C)o1 | > 4 mM (inactive)
40 | NCc1ccc2sccc2c1 | > 4 mM (inactive)
41 | CC(=O)Nc1cccs1 | > 4 mM (inactive)
42 | Cc1ccc(/C=C2/C(=O)N=C(N)N2C)s1 | > 4 mM (inactive)
43 | Cc1cc(=O)[nH]c(N2CCN(Cc3ccccc3)CC2)n1 | > 4 mM (inactive)
44 | COc1cc2c(c(OC)c1OC)-c1ccc(O)c(=O)cc1[C@@H](NC(C)=O)CC2 | > 4 mM (inactive)

Row | SMILES | Kd
45 | Cc1ccccc1NC(=O)C1CCC(=O)N1 (stereo unspecified) | > 4 mM (inactive)
46 | CSc1nc(C)cc(-n2ccc(=O)[nH]c2=O)n1 | > 4 mM (inactive)
47 | O=C(Nc1ccc(N2CCOCC2)cc1)c1cnsn1 | > 4 mM (inactive)
48 | O=C(COc1ccccc1Cl)N1CCCC1 | > 4 mM (inactive)
49 | C[n+]1ccn(C/C(N)=N/O)c1 | > 4 mM (inactive)
50 | NC(=O)c1ccc(N2C(=O)CCC2=O)cc1Cl | > 4 mM (inactive)
51 | N#CCSc1nc2ccccc2c(=O)n1-c1ccccc1 | > 4 mM (inactive)
52 | CCC(C)C(NC)C(=O)O (stereo unspecified) | > 4 mM (inactive)
53 | CC(=O)Nc1ccncc1NC(C)=O | > 4 mM (inactive)
54 | O=C(CN1C(=O)CCC1=O)c1ccccc1 | > 4 mM (inactive)
55 | Cc1nc(-c2cccc(-c3noc(C)n3)c2)no1 | > 4 mM (inactive)
56 | COCC(=O)Nc1nc2ccc(C)cc2s1 | > 4 mM (inactive)
57 | C=C1C2=CC(=O)O[C@@H](c3ccoc3)[C@]2(C)CCC1[C@@]1(C)C=CC(=O)C(C)(C)[C@@H]1CC(=O)OC (stereo partly specified) | > 4 mM (inactive)
58 | COc1cc([C@H]2Oc3cc([C@H]4Oc5cc(O)cc(O)c5C(=O)[C@@H]4O)ccc3O[C@@H]2CO)ccc1O | > 4 mM (inactive)
59 | O=C(O)CCS(=O)(=O)c1ccccc1 | > 4 mM (inactive)
60 | COc1ccc(-c2oc3c(CC=C(C)C)c(O[C@@H]4O[C@H](CO)[C@@H](O)[C@H](O)[C@H]4O)cc(O)c3c(=O)c2O[C@@H]2O[C@@H](C)[C@H](O)[C@@H](O)[C@H]2O)cc1 | > 4 mM (inactive)
61 | Cc1cc(C)c(NC(=O)CN2CCC(O)CC2)c(C)c1 | > 4 mM (inactive)
62 | Cn1cnc2c1c(=O)[nH]c(=O)n2C | > 4 mM (inactive)
63 | Cc1nn(CC(=O)Nc2ccccn2)c(=O)c2ccccc12 | > 4 mM (inactive)
64 | Cc1cc(NC(=O)c2cc(C)on2)no1 | > 4 mM (inactive)
65 | COCC(=O)NC1CC(C)(C)NC(C)(C)C1 | > 4 mM (inactive)
66 | COc1cc(N)ccc1NC(=O)c1cccs1 | > 4 mM (inactive)

Row | SMILES | Kd
67 | Cc1nnsc1-c1onc(C)c1C(=O)O | > 4 mM (inactive)
68 | c1ccc2c(c1)[nH]c1cnccc12 | > 4 mM (inactive)
69 | CCN(CC)S(=O)(=O)c1cccc2nsnc12 | > 4 mM (inactive)
70 | O=C(O)CCc1nc2ccccc2[nH]c1=O | > 4 mM (inactive)
71 | CC(=O)Nc1cccc(N2C(=O)CCC2=O)c1 | > 4 mM (inactive)
72 | O=S1(=O)CCC(NC(=S)Nc2ccccc2)C1 (stereo unspecified) | > 4 mM (inactive)
73 | Cn1cnnc1SCC(=O)Nc1nccs1 | > 4 mM (inactive)
74 | c1ccc(Cn2cccc2)nc1 | > 4 mM (inactive)
75 | COc1ccc(-c2nnsc2N)cc1 | > 4 mM (inactive)
76 | S=C=NCc1ccccc1 | > 4 mM (inactive)
77 | Cc1ccc(CO)o1 | > 4 mM (inactive)
78 | Cn1c(=O)n(-c2cccc(Cl)c2)c(=O)n1C | > 4 mM (inactive)
79 | O=S1(=O)CCC2CC=CCC21 (stereo unspecified) | > 4 mM (inactive)
80 | O=C(O)c1cccnc1-c1nc2ccccc2s1 | > 4 mM (inactive)
81 | C=CCn1c(N)c(C(=O)N2CCOCC2)sc1=S | > 4 mM (inactive)
82 | CN(Cc1nc2ccccc2n1C)C(=O)c1cccs1 | > 4 mM (inactive)
83 | Cc1sc2nc3n(c(=O)c2c1C)CCCS3 | > 4 mM (inactive)
84 | Cc1nc(SCC#N)c2c(C)c(C)sc2n1 | > 4 mM (inactive)
85 | OC[C@H]1O[C@@H](n2cnc3c(NCc4ccco4)ncnc32)[C@H](O)[C@@H]1O | > 4 mM (inactive)
86 | Cn1ccnc1C(O)c1ccccc1 (stereo unspecified) | > 4 mM (inactive)

Reference: PubChem BioAssay AID1549 (Sanford-Burnham Center for Chemical Genomics, 2009)
